This is an account of results in patent US11180504B2 (ORCHID PHARMA LTD., priority 2016, dated 2021).

Converted amounts (≈) assume the structure as drawn. Like-named read-outs stand apart in the source and are kept apart here.

The test system of assay [1] is carbapenemase producing K. pneumoniae. The assay can be described thus: MIC by broth micro-dilution (CLSI), carbapenemase producing K. pneumoniae. Format: cell-based, Klebsiella pneumoniae. The settings on record: Klebsiella pneumoniae. For orientation: Broth dilution looks for growth in wells or tubes with falling amounts of substance.
Assay [2] deals with extended spectrum β lactamase (ESBL) SHV18 producing Klebsiella pneumoniae. The experiment in a line: MIC by broth micro-dilution (CLSI), ESBL SHV18 producing K. pneumoniae. The assay is classed as cell-based. The settings on record: Klebsiella pneumoniae, ATCC700603, 22 h.
In assay [3] the test system is carbapenem sensitive Escherichia coli. The assay can be described thus: MIC by broth micro-dilution (CLSI), carbapenem sensitive E. coli. Format: cell-based. The settings on record: Escherichia coli.
Assay [4] deals with methicillin-sensitive Staphylococcus aureus. The experiment in a line: MIC by broth micro-dilution (CLSI), methicillin-sensitive S. aureus. The assay is classed as cell-based. The settings on record: Staphylococcus aureus, ATCC 29213 / MSSA.
Assay [5] has as its system carbapenem sensitive Pseudomonas aeruginosa. The experiment in a line: MIC by broth micro-dilution (CLSI), carbapenem sensitive P. aeruginosa. Format: cell-based. Particulars: Pseudomonas aeruginosa.
The mark [6] stands for this setting: ATCCBAA1705, KPC-2 K. pneumoniae ATCC BAA-1705, read-out: MIC.
Setting [7] is: ESBL +ve (SHV-18) K. pneumoniae ATCC700603, read-out: MIC.
Where [8] appears, read: ATCC25922, ESBL −ve E. coli ATCC25922, read-out: MIC.
The mark [9] stands for this setting: MSSA S. aureus ATCC29213, read-out: MIC.
The mark [10] stands for this setting: ATCC27853, Meropenem susceptible P. aeruginosa ATCC27853, read-out: MIC.

As usually defined, the MIC is the lowest concentration found to suppress growth.

As for `CNCC(=O)N[C@H](C)[C@H]1C(=O)N2C(C(=O)O)=C(S[C@@H]3CN[C@H](C(=O)N4CCN(C(=N)N)CC4)C3)[C@H](C)[C@H]12` [Example 361, (4R,5S,6R)-3-((3S,5S)-5-(4-carbamimidoylpiperazine-1-carbonyl)pyrrolidin-3-ylthio)-4-methyl-6-((R)-1-(2-(methylamino)acetamido)ethyl)-7-oxo-1-azabicyclo[3.2.0]hept-2-ene-2-carboxylic acid], the minimal inhibitory concentration (MIC) in assay [1] (setting [6]) worked out at 2 µg/mL (≈ 3.73 µM); in assay [2] (setting [7]) it was 4 µg/mL (≈ 7.45 µM); in assay [3] (setting [8]) it was 1 µg/mL (≈ 1.86 µM); in assay [4] (setting [9]), 8 µg/mL (≈ 14.9 µM); in assay [5] (setting [10]) it was 2 µg/mL (≈ 3.73 µM).

As to `CNCC(=O)N[C@H](C)[C@H]1C(=O)N2C(C(=O)O)=C(S[C@@H]3CN[C@H](CNS(N)(=O)=O)C3)[C@H](C)[C@H]12` [Example 169], the MIC is 2 µg/mL (≈ 4.08 µM) in assay [1] (setting [6]); 16 µg/mL (≈ 32.6 µM) in assay [2] (setting [7]); 1 µg/mL (≈ 2.04 µM) in assay [3] (setting [8]); 8 µg/mL (≈ 16.3 µM) in assay [4] (setting [9]); 4 µg/mL (≈ 8.15 µM) in assay [5] (setting [10]).

On to `COP(=O)(CC(=O)N[C@H](C)[C@H]1C(=O)N2C(C(=O)O)=C(S[C@@H]3CN[C@H](C(=O)N(C)C)C3)[C@H](C)[C@H]12)OC` [Example 91], for which the minimum inhibitory concentration (MIC) in assay [1] (ATCCBAA1705) was 32 µg/mL (≈ 60.1 µM); in assay [2], 32 µg/mL (≈ 60.1 µM); in assay [3] (ATCC25922), 4 µg/mL (≈ 7.51 µM); in assay [4], 16 µg/mL (≈ 30 µM); in assay [5] (ATCC27853), more than 128 µg/mL.

For the compound `C[C@@H](NC(=O)C(F)F)[C@H]1C(=O)N2C(C(=O)O)=C(S[C@@H]3CN[C@H](C(=O)N[C@@H]4CCNC4)C3)[C@H](C)[C@H]12` [Example 130], the minimum inhibitory concentration (MIC) in assay [1] (setting [6]) came out at 4 µg/mL (≈ 7.98 µM); in assay [2] (setting [7]), 8 µg/mL (≈ 16 µM); in assay [3] (setting [8]), 1 µg/mL (≈ 1.99 µM); in assay [4] (setting [9]), 2 µg/mL (≈ 3.99 µM); in assay [5] (setting [10]), 32 µg/mL (≈ 63.8 µM).

With `CNCC(=O)N[C@H](C)[C@H]1C(=O)N2C(C(=O)O)=C(S[C@@H]3CN[C@H](C(=O)N4CCN(CCN)CC4)C3)[C@H](C)[C@H]12` [Example 221], the MIC in assay [1] (setting [6]) was determined as 2 µg/mL (≈ 3.72 µM); in assay [2] (setting [7]), 2 µg/mL (≈ 3.72 µM); in assay [3] (setting [8]) it was 2 µg/mL (≈ 3.72 µM); in assay [4] (setting [9]), 32 µg/mL (≈ 59.5 µM); in assay [5] (setting [10]), 4 µg/mL (≈ 7.44 µM).

For the compound `C[C@@H](NC(=O)OCC(F)(F)F)[C@H]1C(=O)N2C(C(=O)O)=C(S[C@@H]3CN[C@H](CNS(N)(=O)=O)C3)[C@H](C)[C@H]12` [Example 52], the MIC in assay [1] (setting [6]) was more than 128 µg/mL; in assay [2] (setting [7]), 128 µg/mL (≈ 235 µM); in assay [3] (setting [8]), 8 µg/mL (≈ 14.7 µM); in assay [4] (setting [9]), 1 µg/mL (≈ 1.83 µM); in assay [5] (setting [10]), more than 128 µg/mL.

Take `C[C@@H](NC(=O)C(F)F)[C@H]1C(=O)N2C(C(=O)O)=C(S[C@@H]3CN[C@H](C(=O)N4CC(N)C4)C3)[C@H](C)[C@H]12` [Example 131]: the minimal inhibitory concentration (MIC) in assay [1] (setting [6]) is 8 µg/mL (≈ 16.4 µM); in assay [2] (setting [7]) it was 2 µg/mL (≈ 4.1 µM); in assay [3] (setting [8]), 0.5 µg/mL (≈ 1.03 µM); in assay [4] (setting [9]) it was 4 µg/mL (≈ 8.2 µM); in assay [5] (setting [10]), 16 µg/mL (≈ 32.8 µM).

For the compound `CC(C)OC(=O)N[C@H](C)[C@H]1C(=O)N2C(C(=O)O)=C(S[C@@H]3CN[C@H](C(=O)N(C)C)C3)[C@H](C)[C@H]12` [Example 22], the minimal inhibitory concentration (MIC) in assay [1] (setting [6]) was 32 µg/mL (≈ 68.3 µM); in assay [2] (setting [7]), 64 to 128 µg/mL (≈ 137 to 273 µM); in assay [3] (setting [8]), 8 µg/mL (≈ 17.1 µM); in assay [4] (setting [9]), 2 µg/mL (≈ 4.27 µM); in assay [5] (setting [10]) it was more than 128 µg/mL.

Consider `C[C@@H](NC(=O)C(F)F)[C@H]1C(=O)N2C(C(=O)O)=C(S[C@@H]3CN[C@H](C(=O)N4CC[C@@H](F)C4)C3)[C@H](C)[C@H]12` [Example 209], for which the minimal inhibitory concentration (MIC) in assay [1] (setting [6]) was found to be 2 µg/mL (≈ 3.96 µM); in assay [2] (setting [7]), 2 µg/mL (≈ 3.96 µM); in assay [3] (setting [8]) it was 0.5 µg/mL (≈ 0.991 µM); in assay [4] (setting [9]), 2 µg/mL (≈ 3.96 µM); in assay [5] (setting [10]) it was 64 µg/mL (≈ 127 µM).

On to `CNCC(=O)N[C@H](C)[C@H]1C(=O)N2C(C(=O)O)=C(S[C@@H]3CN[C@H](C(=O)N4C[C@@H](N)C[C@H]4CN)C3)[C@H](C)[C@H]12` [Example 191], for which the minimum inhibitory concentration (MIC) in assay [1] (setting [6]) was found to be 8 µg/mL (≈ 15.3 µM); in assay [2] (setting [7]) it was 32 µg/mL (≈ 61.1 µM); in assay [3] (setting [8]), 8 µg/mL (≈ 15.3 µM); in assay [4] (setting [9]), 64 µg/mL (≈ 122 µM); in assay [5] (setting [10]), 32 µg/mL (≈ 61.1 µM).

As for `C[C@@H](Oc1ccon1)[C@H]1C(=O)N2C(C(=O)O)=C(S[C@@H]3CN[C@H](C(=O)N(C)C)C3)[C@H](C)[C@H]12` [Example 187], the minimum inhibitory concentration (MIC) in assay [1] (setting [6]) was 64 µg/mL (≈ 142 µM); in assay [2] (setting [7]), 8 µg/mL (≈ 17.8 µM); in assay [3] (setting [8]), 2 µg/mL (≈ 4.44 µM); in assay [4] (setting [9]), 4 µg/mL (≈ 8.88 µM); in assay [5] (setting [10]), 128 µg/mL (≈ 284 µM).

`CNC[C@@H]1C[C@H](N)CN1C(=O)[C@@H]1C[C@H](SC2=C(C(=O)O)N3C(=O)[C@H]([C@@H](C)NC(=O)C(F)F)[C@H]3[C@H]2C)CN1` [Example 185]: the MIC in assay [1] (setting [6]) was found to be 16 µg/mL (≈ 29.4 µM); in assay [2] (setting [7]) it was 64 µg/mL (≈ 118 µM); in assay [3] (setting [8]) it was 2 µg/mL (≈ 3.67 µM); in assay [4] (setting [9]), 2 µg/mL (≈ 3.67 µM); in assay [5] (setting [10]), 64 µg/mL (≈ 118 µM).

For the compound `CNCC(=O)N[C@H](C)[C@H]1C(=O)N2C(C(=O)O)=C(S[C@@H]3CN[C@H](C(=O)N4C[C@H](N)[C@@H](N)C4)C3)[C@H](C)[C@H]12` [Example 200], the MIC is 4 µg/mL (≈ 7.85 µM) in assay [1] (setting [6]); 8 µg/mL (≈ 15.7 µM) in assay [2] (setting [7]); 2 µg/mL (≈ 3.92 µM) in assay [3] (setting [8]); 128 µg/mL (≈ 251 µM) in assay [4] (setting [9]); 4 µg/mL (≈ 7.85 µM) in assay [5] (setting [10]).

On to `C[C@@H](NC(=O)OCC(F)F)[C@H]1C(=O)N2C(C(=O)O)=C(S[C@@H]3CN[C@H](C(=O)N(C)C)C3)[C@H](C)[C@H]12` [Example 41], for which the MIC is 16 µg/mL (≈ 32.6 µM) in assay [1] (setting [6]); 16 µg/mL (≈ 32.6 µM) in assay [2] (setting [7]); 1 µg/mL (≈ 2.04 µM) in assay [3] (setting [8]); 2 µg/mL (≈ 4.08 µM) in assay [4] (setting [9]); more than 128 µg/mL in assay [5] (setting [10]).

As to `C[C@H]1C(S[C@@H]2CN[C@H](C(=O)N(CCO)CCO)C2)=C(C(=O)O)N2C(=O)[C@H]([C@@H](C)NC(=O)C(F)F)C12` (some centres unmarked) [Example 140], the MIC in assay [1] (setting [6]) was 2 µg/mL (≈ 3.84 µM); in assay [2] (setting [7]) it was 1 µg/mL (≈ 1.92 µM); in assay [3] (setting [8]) it was 0.5 µg/mL (≈ 0.961 µM); in assay [4] (setting [9]) it was 2 µg/mL (≈ 3.84 µM); in assay [5] (setting [10]) it was 32 µg/mL (≈ 61.5 µM).

Take `C[C@@H](NC(=O)CC(F)(F)F)[C@H]1C(=O)N2C(C(=O)O)=C(S[C@@H]3CN[C@H](C(=O)N(C)C)C3)[C@H](C)[C@H]12` [Example 40]: the MIC in assay [1] (setting [6]) was 4 to 8 µg/mL (≈ 8.12 to 16.2 µM); in assay [2] (setting [7]), 8 µg/mL (≈ 16.2 µM); in assay [3] (setting [8]), 1 µg/mL (≈ 2.03 µM); in assay [4] (setting [9]), 4 µg/mL (≈ 8.12 µM); in assay [5] (setting [10]), more than 128 µg/mL.

Turning to `C[C@@H](NC(=O)C(F)(F)F)[C@H]1C(=O)N2C(C(=O)O)=C(S[C@@H]3CN[C@H](C(=O)N(C)C)C3)[C@H](C)[C@H]12` [Example 64], the MIC in assay [1] (setting [6]) was 8 µg/mL (≈ 16.7 µM); in assay [2] (setting [7]) it was 8 µg/mL (≈ 16.7 µM); in assay [3] (setting [8]) it was 1 to 2 µg/mL (≈ 2.09 to 4.18 µM); in assay [4] (setting [9]), 2 µg/mL (≈ 4.18 µM); in assay [5] (setting [10]), 64 µg/mL (≈ 134 µM).

`C[C@@H](NC(=O)C(F)F)[C@H]1C(=O)N2C(C(=O)O)=C(S[C@@H]3CN[C@H](C(=O)N4CC[C@H](O)C4)C3)[C@H](C)[C@H]12` [Example 77]: the minimal inhibitory concentration (MIC) in assay [1] (setting [6]) was 4 µg/mL (≈ 7.96 µM); in assay [2] (setting [7]), 1 µg/mL (≈ 1.99 µM); in assay [3] (setting [8]), 0.5 to 1 µg/mL (≈ 0.995 to 1.99 µM); in assay [4] (setting [9]), 4 to 8 µg/mL (≈ 7.96 to 15.9 µM); in assay [5] (setting [10]), 32 to 64 µg/mL (≈ 63.7 to 127 µM).

For the compound `C[C@@H](NC(=O)CCN)[C@H]1C(=O)N2C(C(=O)O)=C(S[C@@H]3CN[C@H](C(=O)N(C)C)C3)[C@H](C)[C@H]12` [Example 165], the minimum inhibitory concentration (MIC) in assay [1] (setting [6]) was found to be 2 µg/mL (≈ 4.41 µM); in assay [2] (setting [7]) it was 4 µg/mL (≈ 8.82 µM); in assay [3] (setting [8]) it was 2 µg/mL (≈ 4.41 µM); in assay [4] (setting [9]), 64 µg/mL (≈ 141 µM); in assay [5] (setting [10]), 32 µg/mL (≈ 70.6 µM).
